Results published in US20260042754A1, “Substituted Bicyclic Heteroaryl Sulfonamide Derivatives for the Treatment of Cancer” (NODUS ONCOLOGY LIMITED, priority 2022, published 2026).
Like-named read-outs stand apart in the source and are kept apart here.

Legend:
Assay type in all cases: cell-based
[1] = system: TOV-112D endometrioid adenocarcinoma ovarian cancer cell line; assay: Cell proliferation assay (CellTiter-Glo), TOV-112D; conditions: 96-well, 5000 cells per well, 120 hours, highest concentration tested 9000 nM, off-target readout, read-out: TOV-112D GI50 (low PARG dependency)
Experimental: (§1) For Examples 1-11, RMUG-S mucinous cystadenocarcinoma (JCRB, #IF050320) and TOV-112D endometrioid adenocarcinoma (ATCC, #CRL-11731) ovarian cancer cell lines were grown in DMEM/F-12 with glutamine (BioConcept, #1-26F09-I) and RPMI with glutamine (BioConcept, #1-41F03-1), respectively, and both media containing 10% FBS (Sigma-Aldrich, #F9665) and supplemented with 1% Penicillin-Streptomycin (BioConcept, #4-01F00-H) using standard cell culture techniques. RMUG-S and TOV-112D ovarian cancer cell lines were selected as highly PARG dependent and having low PARG dependency, respectively, based on their publically available PARG shRNA (short hairpin ribonucleic acid) dropout profiles in the Cancer Dependency Map (DepMap) data portal (Broad Institute DepMap Project; Cheung H W et al, Proceedings of the National Academy of Sciences 2011; Cowley G S et al, Scientific Data 2014; McDonald E R et al, Cell 2017). PARG dependency of these cell lines was independently verified and confirmed by genetic and pharmacological means using shRNA-mediated PARG depletion, and the previously reported cell-permeable quinazolinedione PARG inhibitor tool compound PDD00017273 (Pillay N et al, Cancer Cell 2019). Thus, growth inhibition of the RMUG-S cell line serves as a functional on-target inhibition readout, while observing potent growth inhibition of TOV-112D is indicative of compound off-target activity. Cells were seeded in 96-well plates with clear bottom (Huberlab, #7.655 090) at a seeding density of 5000 cells per well in 100 μL of medium, and the plates were incubated overnight at 37° C. with 5% CO2 prior to treatment with compounds. Experimental compounds were prepared in DMSO at a concentration of 10 mM. Compounds were distributed at the desired final concentrations using the Tecan D300e Digital Dispenser (TECAN) and normalized to the highest DMSO volume. The plates were incubated for 120 hours and cell numbers were then measured using CellTiter-Glo® (Promega, #G9241), essentially as recommended by the manufacturer. Briefly, for the CellTiter-Glo® proliferation readout, 50 μL of the reconstituted CellTiter-Glo® 2.0 Reagent were added to 100 μL of medium containing cells. The plates were incubated at room temperature for 10 minutes to stabilize the luminescent signal, and luminescence intensity signals were then measured with a Synergy 4™ microplate reader (BioTek Instruments). Relative proliferation values were calculated by normalizing the raw data using DMSO-treated cells (100% proliferation) and the signals obtained from cells that were evaluated at the time of compound addition (0% proliferation). The concentration-response data were fitted to a sigmoidal 4-parameter logistic model with the maximum constrained to 100%. GI50 values were calculated from the curves as the compound concentrations reducing proliferation to 50%.

[2] = target: human PARG (PARG-NanoLuc fusion in HEK293T cells) (Homo sapiens (Human), UniProt Q86W56); assay: PARG NanoBRET-based cellular target engagement assay; conditions: HEK293T cells transfected with PARG-NanoLuc, NanoBRET probe 0.89 μM, 2 hours; read-out: PARG TE IC50
Sequence of human PARG (PARG-NanoLuc fusion in HEK293T cells) (Q86W56 whole entry, the tested form may be a part): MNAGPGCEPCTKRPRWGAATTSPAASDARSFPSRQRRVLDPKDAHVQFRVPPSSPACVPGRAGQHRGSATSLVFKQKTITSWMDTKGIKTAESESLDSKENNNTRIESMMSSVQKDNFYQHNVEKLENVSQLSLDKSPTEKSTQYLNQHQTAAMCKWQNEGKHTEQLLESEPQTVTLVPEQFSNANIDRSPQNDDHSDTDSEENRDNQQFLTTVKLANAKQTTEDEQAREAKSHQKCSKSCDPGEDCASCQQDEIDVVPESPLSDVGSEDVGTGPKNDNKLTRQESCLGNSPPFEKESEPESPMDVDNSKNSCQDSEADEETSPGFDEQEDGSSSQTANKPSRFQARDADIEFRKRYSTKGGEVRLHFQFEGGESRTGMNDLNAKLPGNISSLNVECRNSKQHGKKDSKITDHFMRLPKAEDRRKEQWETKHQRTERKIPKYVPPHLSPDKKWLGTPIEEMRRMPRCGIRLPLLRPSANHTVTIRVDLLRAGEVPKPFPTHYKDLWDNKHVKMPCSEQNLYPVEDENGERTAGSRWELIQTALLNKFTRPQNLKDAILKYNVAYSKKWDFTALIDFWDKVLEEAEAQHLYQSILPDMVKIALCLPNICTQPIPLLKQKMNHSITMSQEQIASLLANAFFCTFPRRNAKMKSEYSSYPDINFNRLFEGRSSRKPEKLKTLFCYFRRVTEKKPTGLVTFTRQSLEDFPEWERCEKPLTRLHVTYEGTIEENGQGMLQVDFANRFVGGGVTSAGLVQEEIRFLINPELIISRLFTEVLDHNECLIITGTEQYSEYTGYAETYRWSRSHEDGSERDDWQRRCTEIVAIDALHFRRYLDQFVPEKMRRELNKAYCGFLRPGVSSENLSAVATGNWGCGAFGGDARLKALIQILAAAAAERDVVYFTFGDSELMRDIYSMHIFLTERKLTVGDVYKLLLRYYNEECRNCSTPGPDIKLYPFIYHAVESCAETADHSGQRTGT
Outline: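 HEK293T cells transiently expressing full-length human PARG with C-terminal NanoLuc, plated 24 h, then given compound (8-point series, 0.5% DMSO) for 15 min at room temperature. NanoBRET tracer added at 0.89 μM final, 2 h at 37° C.; BRET ratio (460/645 nm) fitted by 4-parameter logistic to give IC50.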

[3] = system: RMUG-S mucinous cystadenocarcinoma ovarian cancer cell line; assay: Cell proliferation assay (CellTiter-Glo), RMUG-S, Examples 1-11; conditions: Examples 1-11: 96-well, 5000 cells per well, 120 hours; highest concentration tested 9000 nM; read-out: RMUG-S GI50 (high PARG dependency)
Experimental: as §1

| SMILES | GI50 ([1]; Homo sapiens, TOV112D) | IC50 [2] | GI50 [3] | GI50 [1] |
| --- | --- | --- | --- | --- |
| CO/N=c1\[nH]c2ccc(S(=O)(=O)NC3(C)COC3)cc2c(=O)n1Cc1cnn(C)c1 [Example 2, 2-methoxyimino-N-(3-methyloxetan-3-yl)-3-[(1-methylpyrazol-4-yl)methyl]-4-oxo-1H-quinazoline-6-sulfonamide] | ≥ 9 µM | 0.1 to 1 µM | 2 to 9 µM |  |
| Cc1nc(C)c(CO/N=c2\[nH]c3ccc(S(=O)(=O)NC4(C)CC4)cc3c(=O)n2Cc2cnn(C)c2)s1 [Example 3, 2-[(2,4-dimethylthiazol-5-yl)methoxyimino]-N-(1-methylcyclopropyl)-3-[(1-methylpyrazol-4-yl)methyl]-4-oxo-1H-quinazoline-6-sulfonamide] | ≥ 9 µM | 0.1 to 1 µM | 2 to 9 µM |  |
| CO/N=c1\[nH]c2c(-c3ccc(C(=O)N(C)C)cc3)cc(S(=O)(=O)NC3(C)CC3)cc2c(=O)n1Cc1cnn(C)c1 [Example 5, 4-[2-methoxyimino-6-[(1-methylcyclopropyl)sulfamoyl]-3-[(1-methylpyrazol-4-yl)methyl]-4-oxo-1H-quinazolin-8-yl]-N,N-dimethyl-benzamide] | ≥ 9 µM | < 0.03 µM | 0.5 to 2 µM |  |

Other lines, results leading:

| GI50 ([1]; Homo sapiens, TOV112D) | IC50 [2] | GI50 [3] | GI50 [1] | SMILES |
| --- | --- | --- | --- | --- |
| ≥ 9 µM | 0.03 to 0.099 µM | 0.5 to 2 µM |  | CO/N=c1\[nH]c2ccc(S(=O)(=O)NC3(C)CC3)cc2c(=O)n1Cc1cnc(C)s1 [Example 1, 2-methoxyimino-N-(1-methylcyclopropyl)-3-[(2-methylthiazol-5-yl)methyl]-4-oxo-1H-quinazoline-6-sulfonamide] |
| ≥ 9 µM | < 0.03 µM | 0.5 to 2 µM |  | CO/N=c1\[nH]c2c(N3CCN[C@H](C)C3)cc(S(=O)(=O)NC3(C)CC3)cc2c(=O)n1Cc1cnn(C)c1 [Example 7, 2-methoxyimino-N-(1-methylcyclopropyl)-3-[(1-methylpyrazol-4-yl)methyl]-4-oxo-8-[(3R)-3-methylpiperazin-1-yl]-1H-quinazoline-6-sulfonamide] |
|  | < 0.03 µM | < 0.5 µM | 0.5 to 2 µM | CON=c1[nH]c2c(N3CCN(C(=O)C4(C)CC4)[C@H](C)C3)cc(S(=O)(=O)NC3(C)CC3)cc2c(=O)n1Cc1cnn(C)c1 [Example 8, 2-methoxyimino-N-(1-methylcyclopropyl)-3-[(1-methylpyrazol-4-yl)methyl]-4-oxo-8-[(3R)-3-methyl-4-(1-methylcyclopropanecarbonyl)piperazin-1-yl]-1H-quinazoline-6-sulfonamide] |
